Assay results published in patent US20170231890A1, “Methods And Compositions For Stimulating Collagen Synthesis In Skin Cells” (ELC Management LLC, priority 2016, published 2017).

Test system: normal human dermal fibroblasts (NHDF) from a donor
Assay: collagen induction assay (Pro-collagen Type I EIA) in aged fibroblasts
Assay type: cell-based
Conditions: for % Increase in Collagen Induction: 5 days, vs DMEM control
Description: Tripeptide-32 was tested at various concentrations for its ability to stimulate collagen production in normal human dermal fibroblasts (“NHDF”) from a donor in a collagen induction assay. Tripeptide-32 was tested at 1× (0.2%) 0.5× (0.1%) and 0.2× (0.04%) concentration diluted in DMEM (“Dulbecco's Modified Eagle Medium”) supplemented with 10% Hyclone® bovine calf serum and 1% Cellgro® penicillin-streptomycin solution (“DMEM”). All percentages are by weight of the total composition.
Cell Growth and Maintenance. Aged NHDF were obtained from ZenBio. Fibroblasts were cultured in DMEM 1× (Life Tech) supplemented with 10% bovine calf serum (“BCS”) (Hyclone) and 1% PenStrep (“PS”) solution (Cellgro). Cells were regularly maintained; subcultured as needed.
Plating Cells. Normal human dermal fibroblasts (NHDF, aged) were plated on a 96-well plate in supplemented DMEM (as indicated above). All rows, except for Row A, were seeded with cells (Row A was left blank to allow for background subtraction). Plate was allowed to incubate at standard conditions (37° C., 5% CO2, 95% humidity) overnight.
Preparation & Treatment of Cells. The following treatments were created in full media (1% P/S and 10% BCS supplemented) DMEM: (1) Laminaria digitata extract (0.5%); Acetyl hexapeptide-8 solution (a mixture of 0.05% Acetyl hexapeptide-8, 99.35% water and the remainder preservatives) (10%); and whey protein (0.1%, solid) with the remainder DMEM (the “Mixture”); (2) Mixture+Tripeptide-32: Laminaria digitata extract (0.5%), Acetyl hexpeptide-8 solution (10%), whey protein (0.1%) and Tripeptide-32 (0.2%) in DMEM at 1× (0.2%), 0.5× (0.1%), and 0.2× (0.04%) concentration; (3) Tripeptide-32 alone at 1× (0.2%), 0.5× (0.1%) and 0.2× (0.04%) concentration. Each treatment (200 ul/well) was added to the corresponding well of the 96-well plate. Treated plate was allowed to incubate at standard conditions (37° C., 5% CO2, 95% humidity) for 5 days.
Assessment of Collagen Production. Collagen production was assessed using the Pro-collagen Type I collagen EIA Kit (Takara) as per manufacturer's protocol, exactly as described. Plate was read using the Gemini M2E plate reader and results were compared.
The combination of Tripeptide-32 and a mixture of Acetyl hexapeptide-8, Laminaria digitata extract and whey protein were tested for collagen stimulation in NHDF from a donor. Tripeptide-32 at a concentration of 0.2% was combined with a mixture of Acetyl hexapeptide-8 solution (0.05% Acetyl hexapeptide-8, 99.35% water, remainder preservatives) (10%); 0.5% Laminaria digitata extract solution, and 0.1% whey protein in Supplemented DMEM.
The tests were performed according to the method in Example 1.

Ser-Thr-Pro-NH2 [Tripeptide-32]
collagen synthesis (result in words) (0.2× (0.04%)): decreased collagen synthesis | % Increase in Collagen Induction (0.2× concentration (Tripeptide-32 0.04%)): −15.39% | collagen synthesis (result in words) (0.5× (0.1%) and 1× (0.2%) concentrations): nearly insignificant increase in collagen synthesis | % Increase in Collagen Induction (0.5× concentration (Tripeptide-32 0.1%)): +1.17% | % Increase in Collagen Induction (1.0× concentration (Tripeptide-32 0.2%)): +3.27%
